Experiments:
[1] = tested on: fetal globin mRNA; experiment: Fetal globin induction in phlebotomized anemic baboons; format: in vivo, baboon; conditions: for fetal globin mRNA (% of non-alpha globin): baseline 26%
Description: Juvenile baboons were catheterized with venous and arterial catheters, and were phlebotomized a set amount of blood daily to maintain anemia with a hemoglobin level of 7.0-7.5 g/dl, from a baseline normal hemoglobin level of (12-13 g/dl). Normal saline was infused to replace the amount of blood withdrawn. This degree of phlebotomy exchanges the blood volume every 10-20 days.
Fetal globin mRNA was analyzed at baseline anemia before and following administration of test compounds. Globin chain protein synthesis confirmed the mRNA findings.
Following establishment of the stable level of anemia, a test compound was administered once/day, either intravenously or orally, and blood was withdrawn through the arterial catheter for analysis of globin mRNA or for analysis of the test compound in the plasma by HPLC-MS. Pharmacokinetic profiles were established from the plasma levels and oral bioavailability (comparing area under the curve between IV and oral plasma levels) was determined for the test compounds.
In anemic Baboon 5002, baseline fetal globin mRNA, assayed by RNAse protection, was 26% of non-alpha globin. With treatment with compound Y at 5 mg/kg/dose, fetal globin mRNA increased to 48% of non-alpha globin, an 85% increase over the baseline level. Treatment with compound AK at 50 mg/kg induced a 51% fetal globin mRNA increase, a 96% increase over the baseline level. […] The human equivalent dose is 20% of these doses, or 1 mg/kg, 10 mg/kg, or 8 mg/kg respectively. Thus, these 3 compounds are highly suitable for pharmaceutical compositions at doses that human patients can readily tolerate.

[2] = tested on: γ globin promoter; experiment: β/γ-globin promoter driven reporter gene assay; format: cell-based; conditions: Table 2
[3] = Pharmacokinetic profiles in anemic juvenile baboons (plasma levels by HPLC-MS); format: in vivo; conditions: 10 mg/kg oral, baboon
Description: Juvenile baboons were catheterized with venous and arterial catheters, and were phlebotomized a set amount of blood daily to maintain anemia with a hemoglobin level of 7.0-7.5 g/dl, from a baseline normal hemoglobin level of (12-13 g/dl). Normal saline was infused to replace the amount of blood withdrawn. This degree of phlebotomy exchanges the blood volume every 10-20 days. Following establishment of the stable level of anemia, a test compound was administered once/day, either intravenously or orally, and blood was withdrawn through the arterial catheter for analysis of globin mRNA or for analysis of the test compound in the plasma by HPLC-MS. Pharmacokinetic profiles were established from the plasma levels and oral bioavailability (comparing area under the curve between IV and oral plasma levels) was determined for the test compounds.

[4] = tested on: cells expressing fetal globin (F-cells); experiment: Experiment 1: proportion of F-cells in hematopoietic colonies by FACScan; format: cell-based, human; conditions: same low concentrations as for fetal globin mRNA induction
Description: (§1) Erythroid burst-forming units (BFU-E) (erythroid progenitors) and colony-forming units granulocyte-macrophage (CFU-GM) (myeloid colonies) were cultured in semi-solid or in two-phase suspension media, with or without hematopoietic growth factors at high levels (e.g., erythropoietin at 3 U/ml) or reduced levels (BFU-E cell proliferation was evaluated by enumeration in colonies developing in the presence of reduced amounts of erythropoietin (0.5 U/ml) rather than 3 U (or 3000 mU)/ml, which is standard for these experimental systems), from cord blood or the peripheral blood of several types of humans. Experiments were carried out on samples derived from 1) β-thalassemia patients who expressed variable levels of fetal globin at baseline (and in untreated control cultures) and represent a variety of potential individual responses, 2) from normal umbilical cord blood samples, which express 40-50% fetal globin at baseline (and in untreated control cultures), 3) from CD34+ cells isolated from normal adult peripheral blood, which expressed low levels of fetal globin in untreated control cultures and at baseline; and 4) from peripheral blood of patients with sickle cell disease who were receiving treatment with hydroxyurea. These biological samples provide a range of potential difficulty in stimulating fetal globin expression in human patients.
Hematopoietic colonies were enumerated with or without (+/−) the test compounds, and compared to colonies which developed in the presence of hematopoietic growth factors alone from the same subject (untreated control colonies), and proportions of cells expressing fetal globin (F-cells) were analyzed by FACScan analysis.

[5] = tested on: F-cell; experiment: Related study: in vitro F cell production; format: cell-based
Description: (§2) In a related study, the relative luciferase reporter gene induction, γ-globin gene induction, and F cell production was tested for several of the candidate compounds. The relative in vitro γ-globin gene reporter stimulation for the tested compounds was as follows: compound P>M>W=R=Y. The relative in vitro γ-globin gene induction for the tested compounds was as follows: P>R=M>Y>W>. The relative in vitro F-cell production was as follows: W>Y>R>M>P. The relative potency for F-cell production was as follows: R>M>Y>P>W.

[6] = tested on: γ-globin gene reporter; experiment: Related study: relative luciferase reporter gene induction; format: cell-based
Description: as §2

[7] = tested on: γ-globin gene; experiment: Related study: relative in vitro γ-globin gene induction; format: cell-based
Description: as §2

[8] = tested on: myeloid colonies; experiment: Experiment 3: myeloid colonies in cord blood cultured without added growth factors; format: cell-based, human; conditions: no added growth factors
Description: as §1
Control colonies were established in cultures with no added growth factors to support myelopoiesis, in Iscove's Modified Dulbecco's Media (IMDM) methylcellulose media with charcoal-absorbed fetal bovine serum, beta mercaptoethanol, BSA.

[9] = tested on: BFU-E; experiment: BFU-E cultured from cord blood; format: cell-based, human
Description: as §1
In a related study, BFU-E cultured from cord blood, was tested with or without compound M, P, R, T, W, Y, Z, AI, F, or 3-(5-chlorothien-3-yl)acrylic acid.

[10] = tested on: Erythroid colonies (BFU-E); experiment: Experiment 2: erythroid colonies (BFU-E) cultured from patients with beta thalassemia; format: cell-based, human; conditions: optimal panel of growth factors
Description: as §1
Erythroid colonies were cultured from patients with beta thalassemia, either without any test compounds (Control), only an optimal panel of hematopoietic growth factors, or with one of the test compounds M, P, T, 2-methyl-1-benzofuran-4-carboxylic acid, V, W, X, Y, AK, AC, or AI. […] Colony numbers were increased above the control cultures (% BFU-E/Control) by anywhere from 25% to 230%. Each of the listed test compounds was tested in at least 5 different patients' blood and the differences were statistically significant.

[11] = tested on: γ-globin mRNA; experiment: γ-globin mRNA by RT-PCR in erythroid colonies cultured from cord blood; format: cell-based, human; conditions: for Concentration required: increase in fetal globin mRNA, erythroid colonies from cord blood; for No. of Positive responses: positive cultures/cultures tested
Description: γ-globin mRNA was analyzed in control and treated erythroid colonies cultured from cord blood, by RT-PCR.

[12] = tested on: Erythroid cells cultured from adult blood; experiment: Experiment 4: erythroid cells cultured from adult blood CD34+ cells (cell counts, qRT-PCR, HPLC of hemoglobins); format: cell-based, human
Description: Erythroid cells cultured from adult blood are low-HbF expressing and are the most difficult to alter with regard to globin expression. This experiment analyzed erythroid cells cultured from adult blood in the presence or absence of representative test compounds.
Erythroid cells were generated by culturing purified CD34+ cells in Flt-3 ligand, stem cell factor (SCF) and IL-3 for seven days followed by growth in EPO for 14 days. For treatment, cells were cultured as above in a T75 flask then split into multiple flasks on day 8 and treatment with the test compounds was begun. Compound P or other test compounds were diluted from stock solutions with the microliter volumes of stock added to each culture flask for final working concentrations. Cells were enumerated every two days by hemacytometer count. RNA was harvested from 10^6 cells every two days using RNeasy Plus Mini Kit (Qiagen) and qRT-PCR performed using IQ SybrGreen Supermix on an Opticon Monitor instrument (MJ Research). […] Separation of hemoglobins was performed by cation exchange HPLC using a 35×4.6 mm; […] PolyCAT A column (Nest Group) as described previously by Cheryl Rognerud and Ching-Nan Ou, and outlined by the column manufacturer.
QPCR primers were designed using known sequences for α-globin, β-globin, γ-globin, β-actin and B3PD. Primers were designed to span at least one […].

[13] = tested on: fetal globin gene promoter; experiment: Example 8: factor occupancy of globin gene promoters in primary erythroid cells; format: cell-based
Description: This is a selective effect on the fetal (gamma globin) gene promoter, without generalized widespread epistatic effects or any effects on the beta globin promoter, as other agents tend to cause. The transcription factor EKLF and the remodeling complex Brg1 and Pol II became bound to the promoter in association with gene activation. In contrast, there were no effects on the beta globin gene promoter. These compounds therefore produce highly specific activating effects solely on the globin gene promoter which would be beneficial to induce for therapy of the beta globin gene disorders, and provide a targeted molecular activity.

[14] = tested on: Erythroid colonies; experiment: Experiment 6: erythroid colony growth from sickle cell patients receiving hydroxyurea; format: cell-based, human
Description: Erythroid colonies from the peripheral blood of 4 patients with sickle cell disease who were receiving treatment with Hydroxyurea (HU), a chemotherapeutic agent which suppresses marrow growth and reduces red blood cell production, were cultured alone or with added test compounds M, P, 2-methyl-1-benzofuran-4-carboxylic acid, V, W, Y (racemic mixture) or AI. L-arginine was added as a neutral control, and had no effect on numbers of erythroid colonies.
2-methyl-1-benzofuran-4-carboxylic acid and compound V require additional samples for statistical evaluation, but had positive effects in 3/3 different patients' cultures. These findings indicate that the test compounds stimulate erythroid cell production particularly in conditions of anemia and bone marrow suppression.

| SMILES | % γ globin promoter induction (above untreated control) [2] | proportion of F-cells above the percentage in untreated controls [4] | relative in vitro F-cell production (rank order) [5] | relative potency for F-cell production (rank order) [5] | relative in vitro γ-globin gene reporter stimulation (rank order) [6] | relative in vitro γ-globin gene induction (rank order) [7] | production of myeloid colonies compared to untreated control [8] | numbers of BFU-E colonies compared to controls [9] | number of erythroid colonies compared to matched control cultures [10] | Concentration required [11] | No. of Positive responses [11] | effect on numbers of erythroid colonies compared to control [14] | also measured |
| --- | --- | --- | --- | --- | --- | --- | --- | --- | --- | --- | --- | --- | --- |
| COc1cc(OC)nc(SC(C(=O)O)C(C)C)n1 (racemic) [Compound Y] | ** (‘**’ indicates a 100%-200% increase) | significant increases | W>Y>R>M>P | R>M>Y>P>W | P>M>W=R=Y | P>R=M>Y>W | stimulated production of myeloid colonies | increased numbers of colonies | increased the number of colonies | 5 µM | 1/3 | – | increase over the baseline level of fetal globin mRNA ([1]; Baboon 5002, 5 mg/kg/dose): 85%; fetal globin mRNA (% of non-alpha globin) ([1]; Baboon 5002, 5 mg/kg/dose, RNAse protection): 48%; initial burst level [3]: does not produce an undesirable high initial burst level; persistence in plasma [3]: greater than 24 hours |
| CCC(Nc1ncnc2ccccc12)C(=O)O (stereo not shown) [Compound M] | ** (‘**’ indicates a 100%-200% increase) | significant increases | W>Y>R>M>P | R>M>Y>P>W | P>M>W=R=Y | P>R=M>Y>W | stimulated production of myeloid colonies | increased numbers of colonies | increased the number of colonies | 5 µM | 4/6 | – | increase over the baseline level of fetal globin mRNA ([1]; Baboon 5002, 40 mg/kg): 257%; fetal globin mRNA (% of non-alpha globin) ([1]; Baboon 5002, 40 mg/kg): 67% |
| O=C(O)c1cccc(-c2cc3ccccc3oc2=O)c1 [Compound P] | *** (‘***’ indicates an over 200% increase of γ globin promoter induction over untreated controls) | significant increases | W>Y>R>M>P | R>M>Y>P>W | P>M>W=R=Y | P>R=M>Y>W | – | increased numbers of colonies | increased the number of colonies | 20 µM | 6/6 | – | induction of fetal globin (% of globin expression) ([1]; phlebotomized anemic baboon with no baseline fetal globin): 7%; beta globin expression ([1]; same baboon, baseline 100% beta globin): concommitant reduction; Cell counts vs cells cultured with erythropoietin alone ([12]; 20 microM): increased; increase in expression of fetal globin (Hemoglobin F protein) vs untreated control ([12]; 100 micromolar, one cycle of erythroid differentiation): 19 fold; production/expression of alpha globin ([12]; different doses): no effect; production of beta globin ([12]; same doses as increases in fetal globin mRNA): reciprocal decrease; EKLF and Brg1 ATPase proteins at the gamma-globin gene promoter [13]: induced recruitment; effects on the beta globin gene promoter [13]: no effects; repressor complex of HDAC3, NCoR at the fetal globin gene promoter [13]: displacement of a repressor complex of HDAC3, NCoR |
| NC(=O)NO [Hydroxyurea] | – | – | – | – | – | – | – | – | – | – | – | decreased numbers of erythroid colonies | – |
| N=C(N)NCCC[C@H](N)C(=O)O [L-arginine] | – | – | – | – | – | – | – | – | – | – | – | no effect | – |
